Data on 19 compounds can be found in ChEMBL document CHEMBL1137983, “AL-12182, a novel 11-oxa prostaglandin analog with topical ocular hypotensive activity in the monkey” (Bioorg Med Chem Lett, 2004).

For test [1], the target named is Prostaglandin F2-alpha receptor (Bos taurus, UniProt P37289). The experiment in a line: Binding affinity for Prostanoid FP receptor of bovine corpus luteum.
In test [2] the target is Prostaglandin F2-alpha receptor (Mus musculus) (UniProt P43117). The experiment in a line: Percent response for stimulation of prostanoid FP receptor-linked phosphoinositide turnover in Swiss 3T3 mouse fibroblast cells.
Prostaglandin F2-alpha receptor (Mus musculus), sequence (P43117 whole entry, looked up): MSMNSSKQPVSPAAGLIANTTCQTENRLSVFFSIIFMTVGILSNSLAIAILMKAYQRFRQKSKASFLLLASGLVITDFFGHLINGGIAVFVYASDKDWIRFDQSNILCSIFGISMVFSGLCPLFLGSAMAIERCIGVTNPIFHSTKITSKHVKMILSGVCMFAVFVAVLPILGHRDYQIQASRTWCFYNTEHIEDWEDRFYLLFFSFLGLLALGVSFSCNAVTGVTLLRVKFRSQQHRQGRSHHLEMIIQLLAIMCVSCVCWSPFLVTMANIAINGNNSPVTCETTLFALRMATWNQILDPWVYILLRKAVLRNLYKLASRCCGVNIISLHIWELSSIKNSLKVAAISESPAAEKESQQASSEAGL
Another test is filed under the species Felis catus. The experiment in a line: Effective dose to cat pupil diameter constriction.
Another test is filed under the species Oryctolagus cuniculus. The experiment in a line: Effective dose estimated to elicit conjunctival hyperemia in rabbits over 4 h. Format: functional, Conjunctiva.
Test [3] deals with Monkey. The experiment in a line: Percentage change to elicit monkey intraocular pressure at 0.3 ug. It counts as functional, Cercopithecidae, Eye.
In test [4] the test system is Monkey. The experiment in a line: Percentage change to elicit monkey intraocular pressure at 3 ug. Format: functional, Cercopithecidae, Eye.
The test system of test [5] is Monkey. The experiment in a line: Percentage change to elicit monkey intraocular pressure at 30 ug. Format: functional, Cercopithecidae, Eye.
The subject of test [6] is Monkey. The experiment in a line: Percentage change to elicit monkey intraocular pressure at 1 ug. It counts as functional, Cercopithecidae, Eye.

Prostaglandin F2-alpha receptor, sequence (P37289 whole entry): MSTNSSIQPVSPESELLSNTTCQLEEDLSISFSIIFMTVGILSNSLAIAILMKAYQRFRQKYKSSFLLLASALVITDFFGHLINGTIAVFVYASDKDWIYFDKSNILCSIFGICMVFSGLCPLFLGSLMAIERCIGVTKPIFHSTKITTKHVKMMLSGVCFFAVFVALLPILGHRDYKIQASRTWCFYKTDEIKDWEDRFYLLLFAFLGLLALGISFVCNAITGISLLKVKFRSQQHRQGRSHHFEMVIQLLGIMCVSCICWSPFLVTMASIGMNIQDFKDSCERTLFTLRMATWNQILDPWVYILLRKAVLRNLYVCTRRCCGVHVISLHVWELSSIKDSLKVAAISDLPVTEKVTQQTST

As usually defined, the Ki is the equilibrium dissociation constant of an inhibitor or competing ligand from its target. In turn, `O=C(O)CCCC/C=C\C[C@H]1[C@@H](O)CO[C@@H]1/C=C/[C@@H](O)COc1ccccc1` gave a Ki in test [1] of 640 nM. For the same compound, in test [2], the Response was determined as 67%.

Take `O=C(O)CC/C=C\CCC[C@H]1[C@@H](O)CO[C@@H]1/C=C/[C@@H](O)COc1cccc(Cl)c1`: the affinity in test [1], expressed as Ki, was 147 nM. This compound also showed a Response in test [2] of 88%.

`O=C(O)CCCC/C=C\C[C@H]1[C@@H](O)CO[C@@H]1/C=C/[C@H](O)COc1cccc(C(F)(F)F)c1`: the Ki in test [1] was more than 10000 nM. This compound gave a Response in test [2] of 43%.

Turning to `O=C(O)CCCC/C=C\C[C@H]1[C@@H](O)CO[C@@H]1/C=C/[C@H](O)COc1cccc(Cl)c1`, in test [1], the affinity corresponds to a Ki of 7300 nM. The Response in test [2] stood at 67%.

Regarding `O=C(O)CC/C=C\CCC[C@H]1[C@@H](O)CO[C@@H]1/C=C/[C@H](O)COc1cccc(C(F)(F)F)c1`, the Ki in test [1] came out at 9900 nM. This compound gave a Response in test [2] of 61%.

The compound `CC(C)OC(=O)CCC/C=C/C[C@@H]1[C@@H](/C=C/C(O)COc2cccc(C(F)(F)F)c2)[C@H](O)C[C@@H]1O` (stereo partly specified) had a Ki in test [1] of 52 nM. Moreover, the ED5 was 0.01 µg in the test filed under Felis catus and 3 µg in the test filed under Oryctolagus cuniculus. In test [2], this compound showed a Response of 100%. In addition, in the test on Monkey [3], the Change is recorded as -29%.

On to `CCCCC[C@H](O)/C=C/[C@H]1OC[C@H](O)[C@@H]1C/C=C\CCCC(=O)O`, for which the affinity in test [1], expressed as Ki, was 6700 nM. In test [2], this compound displayed a Response of 64%.

`CC(C)OC(=O)CCC/C=C/C[C@@H]1[C@@H](CC[C@@H](O)CCc2ccccc2)[C@H](O)C[C@@H]1O`: the Ki in test [1] worked out at 92 nM. Further, the ED5 in the test listed under Felis catus was 0.13 µg; in the test filed under Oryctolagus cuniculus it was 1.8 µg. Further, the Change with Monkey [4] is -27%. The compound further came in with a Response in test [2] of 75%.

The compound `O=C(O)CC/C=C\CCC[C@H]1[C@@H](O)CO[C@@H]1/C=C/[C@@H](O)COc1ccccc1` registered a Ki in test [1] of 330 nM. The Response in test [2] was 83%.

Consider `CC(C)OC(=O)CCC/C=C\CC[C@H]1[C@@H](O)CO[C@@H]1/C=C/[C@@H](O)COc1cccc(Cl)c1` [AL-12182], for which the ED5 in the test filed under Felis catus was 0.2 µg; in the test listed under Oryctolagus cuniculus it was 30 µg. Besides, the Change in the test on Monkey [4] is -40%.

In the case of `CC(C)OC(=O)CCC/C=C\C[C@H]1[C@@H](O)CO[C@@H]1/C=C/[C@@H](O)COc1cccc(Cl)c1`, the Change in the test with Monkey [5] is -15%. Further, the results for the ED5 in the test filed under Felis catus and in the test filed under Oryctolagus cuniculus were 0.8 µg and 30 µg, respectively.

As to `O=C(O)CC/C=C\CCC[C@H]1[C@@H](O)CO[C@@H]1/C=C/[C@@H](O)COc1cccc(C(F)(F)F)c1`, in test [1], the affinity corresponds to a Ki of 350 nM. Further, the Response in test [2] came out at 88%.

The compound `CCCCC[C@@H](O)/C=C/[C@H]1OC[C@H](O)[C@@H]1C/C=C\CCCC(=O)O` had a Ki in test [1] of more than 10000 nM.

In test [1], `O=C(O)CCCC/C=C\C[C@H]1[C@@H](O)CO[C@@H]1/C=C/[C@H](O)COc1ccccc1` gave a Ki of 2800 nM. The compound also came in with a Response in test [2] of 49%.

Take `O=C(O)CC/C=C\CCC[C@H]1[C@@H](O)CO[C@@H]1/C=C/[C@H](O)COc1ccccc1`: the Ki in test [1] is 5100 nM. The same compound showed a Response in test [2] of 59%.

The compound `O=C(O)CCCC/C=C\C[C@H]1[C@@H](O)CO[C@@H]1/C=C/[C@@H](O)COc1cccc(C(F)(F)F)c1` displayed a Ki in test [1] of 3100 nM. In test [2], this compound displayed a Response of 74%.

Take `CCCCC[C@H](O)/C=C/C1[C@H](O)C[C@H](O)[C@@H]1C/C=C\CCCC(=O)OC(C)C` (stereo partly specified): the Change in the test on Monkey [6] was -38%. For the same compound, the ED5 in the test listed under Felis catus is 0.03 µg; in the test filed under Oryctolagus cuniculus, less than 0.1 µg.

`O=C(O)CCCC/C=C\C[C@H]1[C@@H](O)CO[C@@H]1/C=C/[C@@H](O)COc1cccc(Cl)c1` came in with a Ki in test [1] of 890 nM. Further, in test [2], the Response is 84%.

For the compound `O=C(O)CC/C=C\CCC[C@H]1[C@@H](O)CO[C@@H]1/C=C/[C@H](O)COc1cccc(Cl)c1`, the affinity in test [1], expressed as Ki, was 820 nM. Moreover, the Response in test [2] is 71%.
